We go through five compounds from US20220273007A1, “FUNCTIONAL FOOD FOR PREVENTING OR IMPROVING DYSURIA” (MARUHACHI MURAMATSU, INC., priority 2019, published 2022).

Assay [1] concerns rat bladder smooth muscle. The assay can be described thus: Organ bath assay: 80 mM KCl contractile inhibition assay. How it is done: The concentration of each fatty acid was set according to the amount thereof present in a 95% ethanol extract of akamoku (Japan Food Research Laboratories; JFRL quantitative analysis). […] Ethanol was used as a control. As in the example described above, 80 mM KCl, a contraction inducer, was also added to induce contraction. The tension (contractile force) of slices of rat bladder smooth muscle was then measured to evaluate contraction inhibition effects. […]
The maximum concentration of each fatty acid was set according to the amount thereof present in a 95% ethanol extract of akamoku (JFRL quantitative analysis). Concentrations of 7.1 μg/mL EPA, 21.3 μg/mL EPA, 71 μg/mL EPA, 4.7 μg/mL stearidonic acid, 14.1 μg/mL stearidonic acid, and 47 μg/mL stearidonic acid were set. As in the examples described above, 80 mM KCl, a contraction inducer, was also added to induce contraction. The tension (contractile force) of slices of rat bladder smooth muscle was then measured to evaluate contraction inhibition effects.

Assay [2] has as its system acetic-acid-induced pollakiuria model rats. The assay can be described thus: In vivo assay (cystometry) using acetic-acid-induced pollakiuria model rats. More on the design: species or system rat. The conditions noted are these: 0.5 mg/kg oral (MC solution). As to the method: In this experiment, 0.1% acetic acid diluted with normal saline was directly injected into the bladders of urethane-anesthetized rats to induce bladder hypersensitivity and create model rats having symptoms of acute (or chronic) pollakiuria, and in vivo assays were performed using these acetic-acid-induced pollakiuria model rats. […] In this way, the effects of the 95% ethanol extract of akamoku upon pollakiuric states in rats were investigated.
control (vehicle)=0.5% methyl cellulose (MC); and akamoku extract=50 mg/mL MC solution of akamoku extract.
• Maximum intravesical pressure (voiding pressure) • Base pressure • Threshold pressure • Voiding interval • Volume per void
Using the model rats with symptoms of acute (chronic) pollakiuria created in experiment 13, a 50 mg/mL MC solution of 50% ethanol extract of akamoku was orally administered to the model rats (n=7). In the graphs in FIG. 18, measured parameters are the voiding intervals, volume per void, and voiding frequency per unit of time of the rats, and pollakiuria-symptomatic model rats are compared with control rats receiving 0.5% methyl cellulose (MC) solution. In this way, the effects of the 50% ethanol extract of akamoku upon pollakiuric states in rats are investigated.
Using the model rats with symptoms of acute (chronic) pollakiuria created in experiment 13, a 50 mg/mL aqueous solution of aqueous akamoku extract was orally administered to the model rats. In the graphs in FIG. 19, measured parameters are the voiding intervals, volume per void, and voiding frequency per unit of time of the rats, compared with control rats receiving ultrapure water. In this way, the effects of the aqueous akamoku extract upon pollakiuric states in rats are investigated.
Using the model rats with symptoms of acute (chronic) pollakiuria created in experiment 13, 0.5 mg/kg akamoku-derived fucoxanthin Fx (MC solution) was orally administered to the model rats. […] In the graphs in FIG. 20, measured parameters are the voiding intervals, volume per void, and voiding frequency per unit of time of the rats, compared with control rats receiving 0.5% methyl cellulose (MC) solution.

Turning to `CC/C=C\C/C=C\C/C=C\C/C=C\C/C=C\CCCC(=O)O` [EPA, eicosapentaenoic acid], in assay [1] (71 μg/mL, 80 mM KCl), the “average contraction compared to 100% uninhibited contraction” value came to 73.3%. Further, the activity at 7.1 µg/mL in assay [1] (Rattus norvegicus, 7.1 μg/mL, 80 mM KCl, read-out: average contraction compared to 100% uninhibited contraction) is 91.1%. The activity at 21.3 µg/mL in assay [1] (Rattus norvegicus, 21.3 μg/mL, 80 mM KCl, read-out: average contraction compared to 100% uninhibited contraction) was determined as 87.2%. Also, the activity at 71 µg/mL in assay [1] (Rattus norvegicus, 71 μg/mL, 80 mM KCl, read-out: average contraction compared to 100% uninhibited contraction) came to 78.2%.
As for `CC(=O)O[C@H]1CC(C)(C)C(=C=C/C(C)=C/C=C/C(C)=C/C=C/C=C(C)/C=C/C=C(\C)C(=O)C[C@@]23O[C@]2(C)C[C@@H](O)CC3(C)C)[C@](C)(O)C1` [akamoku-derived fucoxanthin, fucoxanthin], in assay [2], the “improvement in 0.1% acetic-acid-induced pollakiuria” value is listed as “significant improvement”, the “voiding frequency per unit of time” value is recorded as “decreased”, the voiding interval result was “tended to increase” and the volume per void entry is given as “increased”.
As for `CCCCC/C=C\C/C=C\C/C=C\C/C=C\CCCC(=O)O` [arachidonic acid], in assay [1] (Rattus norvegicus, 44 μg/mL, 80 mM KCl, read-out: average contraction compared to 100% uninhibited contraction), the activity at 44 µg/mL amounted to 82%.
As for `CC/C=C\C/C=C\C/C=C\C/C=C\CCCCC(=O)O` [stearidonic acid], in assay [1] (47 μg/mL, 80 mM KCl), the “average contraction compared to 100% uninhibited contraction” value is listed as 75.6%. Moreover, in assay [1] (Rattus norvegicus, 4.7 μg/mL, 80 mM KCl, read-out: average contraction compared to 100% uninhibited contraction), the activity at 4.7 µg/mL is 87.8%. In assay [1] (Rattus norvegicus, 14.1 μg/mL, 80 mM KCl, read-out: average contraction compared to 100% uninhibited contraction), the activity at 14.1 µg/mL was 89.5%. In addition, the activity at 47 µg/mL in assay [1] (Rattus norvegicus, 47 μg/mL, 80 mM KCl, read-out: average contraction compared to 100% uninhibited contraction) was 68.5%. The “inhibition of 80 mM KCl contraction” value in assay [1] (fatty acid at amount present in 95% ethanol extract of akamoku (EPA 71 μg/mL, stearidonic acid 47 μg/mL)) is reported as “significantly inhibited contraction”.
Take `CC/C=C\C/C=C\C/C=C\CCCCCCCC(=O)O` [α-linolenic acid]: the activity at 36 µg/mL in assay [1] (Rattus norvegicus, 36 μg/mL, 80 mM KCl, read-out: average contraction compared to 100% uninhibited contraction) was 86.8%.
